Results taken from paper PMC6366974, “The curcumin analog EF24 is a novel senolytic agent” (Aging (Albany NY), 2019).
Residues, ends and D or L forms follow the SMILES beside them. *: point of attachment. Cbz = O=C(OCc1ccccc1)*

What was measured:
[1] = test system: WI-38 IR-induced senescent cells (IR-SCs); test: Cell viability assay (flow cytometry, PI); format: cell-based, human; conditions: for EC50: Homo sapiens, WI-38 IR-SCs, 72 h, Table 1 screen of curcumin analogs; for selective toxicity against IR-SCs versus NCs (viability): WI-38, 72 h
Description: (§1) Human WI-38 fibroblasts (WI-38, Cat. No. CCL-75), human IMR-90 fibroblasts (IMR-90, Cat. No. CCL-186), human umbilical vein endothelial cells (HUVEC, Cat. No. CRL-1730), human renal epithelial cells (HREC, Cat. No. PCS-400-012) and human pre-adipocytes (Cat. No. PCS-210-010) were newly purchased from the American Type Culture Collection (ATCC, Manassas, VA, USA). WI-38 and IMR-90 cells were cultured in complete Dulbecco’s modified Eagle medium (DMEM, Cat. No. 12430054, Thermo Fisher Scientific, Waltham, MA, USA) supplemented with 10% heat-inactivated fetal bovine serum (FBS, Cat. No. S11150H, Atlanta Biologicals, Flowery Branch, GA, USA), 100 U/mL penicillin and 100 µg/mL streptomycin (Pen Strep, Cat. No. 15140122, Thermo Fisher Scientific, Waltham, MA, USA) in a humidified incubator at 37°C and 5% CO2. HUVEC were cultured in EGM-2 BulletKit (Cat. No. CC-3162, Lonza, Basel, Switzerland) containing basal medium supplemented with growth factors, cytokines and other supplements according to the manufacturer’s protocol. HREC were cultured in renal epithelial cell basal medium (Cat. No. PCS-400-030, ATCC, Manassas, VA, USA) supplemented with renal epithelial cell growth kit (Cat. No. PCS400040, ATCC, Manassas, VA, USA). Human pre-adipocytes were cultured in fibroblast basal medium (Cat. No. PCS-201-030, ATCC, Manassas, VA, USA) supplemented with fibroblast growth kit-low serum (Cat. No. PCS201041, ATCC, Manassas, VA, USA). EF24 (Cat. No. E8409) and HO-3867 (Cat. No. S7501) were purchased from Sigma-Aldrich (St. Louis, MO, USA) and Selleckchem (Houston, TX, USA), respectively. DIMC (Cat. No. 10009986) and 2-HBA (Cat. No. 11879) were both purchased from Cayman Chemical (Ann Arbor, MI, USA).
(§2) Three different methods were used for the induction of SCs, including replicative exhaustion, ionizing radiation and ectopic Ras expression as previously described. Briefly, low-passage WI-38 cells (< 25 passages), IMR-90 cells (< 25 passages), HUVEC (< 10 passages), HREC (< 10 passages) and pre-adipocytes (< 4 passages) were used as NCs or for the induction of senescence. To induce replicative senescence (Rep-SCs), WI-38 and IMR-90 fibroblasts, HUVEC, HREC and pre-adipocytes were subcultured until they stopped to divide and became permanently growth arrested senescence after 38 passages (WI-38), 38 passages (IMR-90), 22 passages (HUVEC), 30 passages (HREC) and 10 passages (pre-adipocytes), respectively. To induce SCs by ionizing radiation (IR-SCs) and ectopic expression of Ras (Ras-SCs), WI-38 NCs were treated as previously described.
(§3) Number of viable cells were quantified using flow cytometry as previously described with slight modifications. Specifically, NCs and SCs were incubated with vehicle (0.1% DMSO) or a test compound at indicated concentrations for 72 h. Following dissociation with 0.25% Trypsin-EDTA (Cat. No. 25200056, Thermo Fisher Scientific, Waltham, MA, USA) at 37°C for 5 min, the cells were harvested in 100 µl pre-cooled phosphate buffered saline (PBS, Cat. No. 20012027, Thermo Fisher Scientific, Waltham, MA, USA) containing 2% FBS and 100 ng/mL propidium iodide (PI, P4170, Sigma-Aldrich, St. Louis, MO, USA) and analyzed using flow cytometry (LSR II, BD Biosciences, San Jose, CA, USA). Percentage of viable cells were determined by counting the number of PI negative cells (viable cells) and then calculated as a ratio of control cells treated with vehicle. In addition, dose-response curves were generated for each compound, and the concentration for 50% of maximal effect (EC50 values) was calculated using GraphPad Prism 6.

[2] = test system: WI-38 non-senescent cells (NCs); test: Cell viability assay (flow cytometry, PI); format: cell-based, human; conditions: Homo sapiens; WI-38 NCs, 72 h, Table 1 screen of curcumin analogs
Description: as §1, §2, §3

[3] = parameters: method as in PMID 20211249; conditions: cited from earlier work
WI-38 IR-SCs [4] = test: Combination treatment cell viability and coefficient of drug interaction (CDI); format: cell-based, human; conditions: 72 h
Description: as §3
The data were analyzed by analysis of variance (ANOVA) with GraphPad Prism 6 (GraphPad Software, La Jolla, CA, USA). […] To detect the synergistic senolytic activities of EF24 and ABT263, CDI was calculated as previously described.

platelets = test system: platelets; parameters: method as in PMID 22496272; conditions: cited from earlier work
[5] = test system: Bcl-2 family proteins (Bcl-xl, Mcl-1, Bcl-2); test: Proteasome inhibition experiment (MG132 pretreatment, western blots); format: cell-based, human; conditions: 1 µM MG132 1 h prior to EF24 for 72 h
Description: After treatment with vehicle or EF24 at 0.5, 1 and 2 µM for 72 h, WI-38 NCs or IR-SCs were harvested in 1.5mL microcentrifuge tubes, and lysed in RIPA buffer with EDTA and EGTA (Cat. No. BP-115DG, Boston BioProducts, Ashland, MA, USA) supplemented with 1% protease inhibitor cocktail (Cat. No. P8340, Sigma-Aldrich, St. Louis, MO, USA) and 1% phosphatase inhibitor cocktail (Cat. No. P0044, Sigma-Aldrich, St. Louis, MO, USA). An equal amount of protein (30 µg/lane) from each cell extract was resolved on a precast gel (Mini-PROTEAN TGX™, Cat. No. 456-1094, Bio-Rad, Hercules, CA, USA). Proteins were blotted to a precut 0.2 µm PVDF membrane (Invitrolon™, Cat. No. LC2002, Life Technologies, Carlsbad, CA, USA) by electrophoresis. The membranes were blocked with 1X TBS-Tween (TBST, Cat. No. J77500, Affymetrix, Santan Clara, CA, USA) containing 5% non-fat dry milk (Cat. No. sc-2324, Santa Cruz Biotechnology, Dallas, TX, USA), and subsequently probed with primary antibodies at a predetermined optimal concentration overnight at 4°C. The primary antibodies including Bcl-xl (Cat. No. 2762), Mcl-1 (Cat. No. 5453), and Bcl-2 (Cat. No. 2872) and β-actin (Cat. No. 4970) were purchased from Cell Signaling Technology (Danvers, MA, USA). […] The blotting membranes were recorded using autoradiography (SRX-101, Konica, Shinjuku, Tokyo, Japan). […]

WI-38 IR-SCs [6] = test: Apoptosis analysis (Annexin-V/PI flow cytometry); format: cell-based, human; conditions: 10 µM QVD 4 h prior to 2 µM EF24 for 72 h
Description: WI-38 NCs and SCs were treated with vehicle or 10 µM Q-VD-OPh (QVD, Cat. No. S7311, Selleckchem, Houston, TX, USA) for 4 h prior to the addition of vehicle or 2 µM EF24 for 72 h. The suspending cells were first harvested from the culture and then pooled with the adherent cells detached by 0.25% Trypsin-EDTA at 37°C for 5 min in 12 × 75 mm polystyrene round-bottom tubes (Cat. No. 352058, Falcon, Corning, NY, USA) containing complete DMEM medium. The cells were stained with Alexa Fluor 647-Annexin V (1: 50, Cat. No. 640912, BioLegend, San Diego, CA, USA) and PI (10 µg/mL, Cat. No. 421301, BioLegend, San Diego, CA, USA) at room temperature for 30 min. The stained cells were analyzed using a BD LSR II flow cytometer.

[7] = test system: senescent human preadipocytes; parameters: method as in PMID 28273655; conditions: cited from earlier work

Row | SMILES | EC50 [1] [µM] | selective toxicity against IR-SCs versus NCs (viability) [1] | EC50 [2] [µM] | further results
1 | O=C(C=Cc1ccccc1O)C=Cc1ccccc1O [2-HBA, Bis(2-hydroxybenzylidene)acetone] | 3.85 | lesser toxicities to NCs | 9.5 | –
2 | C=CCNC1=C2C[C@@H](C)C[C@H](OC)[C@H](O)[C@@H](C)/C=C(\C)[C@H](OC(N)=O)[C@@H](OC)/C=C\C=C(/C)C(=O)NC(=CC1=O)C2=O [17-AAG] | – | – | – | hepatotoxicity [3]: unacceptable hepatotoxicity
3 | CC1(C)CCC(c2ccc(Cl)cc2)=C(CN2CCN(c3ccc(C(=O)NS(=O)(=O)c4ccc(N[C@H](CCN5CCOCC5)CSc5ccccc5)c(S(=O)(=O)C(F)(F)F)c4)cc3)CC2)C1 [ABT263] | – | – | – | cell viability of IR-SCs, agent alone (WI-38 IR-SCs [4]): dose-dependently reduce; on-target toxicity to platelets (platelets): dose-limiting thrombocytopenia
4 | COc1ccc(/C=C/C(=O)CC(=O)/C=C/c2ccc(OC)c(OC)c2)cc1OC [DIMC, dimethoxycurcumin] | 15.2 | minimal selective toxicity | 23.8 | –
5 | CC1(C)C=C(CN2C/C(=C\c3ccc(F)cc3)C(=O)/C(=C/c3ccc(F)cc3)C2)C(C)(C)N1O [HO-3867] | 3.85 | lesser toxicities to NCs | 8.3 | –
6 | CC(C)C[C@@H](C=O)NC(=O)[C@H](CC(C)C)NC(=O)[C@H](CC(C)C)NC(=O)OCc1ccccc1 [MG132] (Cbz-Leu-Leu-Leu-aldehyde) | – | – | – | effect of MG132 pretreatment on downregulation of Bcl-2 family proteins by EF24 in SCs ([5]; WI-38 IR-SCs): abrogated; effect of MG132 pretreatment on expression of Bcl-2 family proteins in NCs ([5]; WI-38 NCs): no significant effect
7 | CC(C)[C@H](NC(=O)c1ccc2ccccc2n1)C(=O)N[C@@H](CC(=O)O)C(=O)COc1c(F)cccc1F [QVD] | – | – | – | effect of QVD pretreatment on EF24 induction of SCs apoptosis (WI-38 IR-SCs [6]): completely blocked
8 | O=c1c(O)c(-c2ccc(O)c(O)c2)oc2cc(O)ccc12 [fisetin] | – | – | – | senolytic activity against senescent human preadipocytes [7]: lacks senolytic activity
9 | COC1=C2C[C@@H](C)C[C@H](OC)[C@H](O)[C@@H](C)/C=C(\C)[C@H](OC(N)=O)[C@@H](OC)/C=C\C=C(/C)C(=O)NC(=CC1=O)C2=O [geldanamycin] | – | – | – | hepatotoxicity [3]: unacceptable hepatotoxicity
